Measured values reported in US9107865B2, “Methods for producing oocysts” (Zoetis Services LLC, priority 2001, dated 2015).
Like-named read-outs stand apart in the source and are kept apart here.

Legend:
hemagglutinating virus = test: 9CFR 113.34 purity test after sanitization of oocysts; conditions: sanitized E. maxima oocysts
Description: (§1) An experiment was performed to investigate the utility of the sporulation medium described in Example 3 as a sanitization reagent. E. maxima oocysts were produced in broilers and purified using a density flotation technique. Oocysts were sporulated for 72 h using 10% citric acid, 0.25% propionic acid, 0.75% hydrogen peroxide, and 1 mL/L Antifoam A. After sporulation, the oocysts were centrifuged and resuspended in sterile-filtered sporulation medium (10% citric acid, 0.25% propionic acid, 0.75% hydrogen peroxide, 1 mL/L Antifoam A) and incubated overnight at room temperature with stirring. After sanitization, buffer exchange was accomplished via diafiltration using 200 mM potassium phosphate, pH 7, followed by PBS without preservatives. The bulk sample was stored in glass bottles approximately one-third full at 4° C. Subsamples of the final product were sent to a commercial testing laboratory for purity tests according to U.S. Department of Agriculture (USDA) guidelines.
(§2) Two experimental batches of E. maxima oocysts were prepared (Run A and Run B). Each batch was purified using sieving and flotation procedures. Each batch was then split and two methods of sanitization were tested (sodium hypochlorite and hydrogen peroxide with citric acid and propionic acid). Samples from each test were subjected to several purity tests including 9CFR tests and two PCR methods for virus detection.

salmonella = test: 9CFR 113.30 purity test after sanitization of oocysts; conditions: sanitized E. maxima oocysts
Description: as §1, §2

avian lymphoid leukosis = conditions: sanitized E. maxima oocysts
Description: E. maxima oocysts were produced in broilers and purified using a density flotation technique. […] After sanitization, buffer exchange was accomplished via diafiltration using 200 mM potassium phosphate, pH 7, followed by PBS without preservatives. The bulk sample was stored in glass bottles approximately one-third full at 4° C. Subsamples of the final product were sent to a commercial testing laboratory for purity tests according to U.S. Department of Agriculture (USDA) guidelines.

mycoplasma = test: 9CFR 113.28 purity test after sanitization of oocysts; conditions: sanitized E. maxima oocysts
Description: as §1, §2

[1] = tested on: extraneous viable bacteria and fungi; test: 9CFR 113.27 purity test after sanitization of oocysts; conditions: sanitized E. maxima oocysts
Description: as §1, §2

[2] = tested on: Extraneous agents in master seed; test: 9CFR 113.55 purity test after sanitization of oocysts; conditions: sanitized E. maxima oocysts
Description: as §2

[3] = tested on: Chicken Infectious Anemia Virus; test: PCR virus detection after sanitization of oocysts; conditions: sanitized E. maxima oocysts
Description: as §2

[4] = tested on: Reticuloendothelial Virus; test: PCR virus detection after sanitization of oocysts; conditions: sanitized E. maxima oocysts
Description: as §2

Scopulariopsis brumptii = test: Fungistatic or fungicidal properties of reagents (TSB flasks, then MEA plates); assay type: cell-based; conditions: for Growth on MEA plates (Day 14): 1 mL of flask plated on day 28 onto MEA plate, 14 days; for Growth on MEA plates (Day 14) / Growth in TSB Flasks (Day 28): room temperature; for Growth in TSB Flasks (Day 28): TSB flasks inoculated with fungal stock, 28 days; for fungistatic / fungicidal assessment: flask and plate tests taken together; as to Growth in TSB Flasks (Day 28): key: −: no growth was observed; +: growth was observed; as to Growth on MEA plates (Day 14): key: −: no growth was observed; +: growth was observed
Description: An experiment was conducted to assess the fungistatic or fungicidal properties of the reagents used in the collection and sporulation medium described in Example 3. Initial sterility tests were performed using trypticase soy broth (TSB). A fungal stock was created by suspending fungal scrapings from a Scopulariopsis brumptii stock culture into 25 mL PBS and filtering this material through a coarse Swinney filter (˜100 μm). Two hundred […] of this fungal stock was inoculated into three TSB flasks for treatments (Trt) 2-11.
Treatments evaluated various of the components of the collection/sporulation/sanitization medium described in Example 3, either alone or in combination. Sodium propionate was also tested in addition to propionic acid. Treatments were evaluated at room temperature for 28 days; then, on day 28 of incubation, one mL of each replicate flask for all treatments was plated onto a malt extract agar (MEA) plate with chloramphenicol (50 μg/mL) and penicillin-G (100 U/mL) and incubated at room temperature for 14 days.

[Na+].[O-]Cl [Hypochlorite, sodium hypochlorite]
9CFR 113.34 Detection of hemagglutinating virus (hemagglutinating virus; Example 6, Run A): Negative
9CFR 113.34 Detection of hemagglutinating virus (hemagglutinating virus; Example 6, Run B): Negative
9CFR 113.30 Detection of salmonella (salmonella; Example 6, Run A): Negative
9CFR 113.30 Detection of salmonella (salmonella; Example 6, Run B): Negative
9CFR 113.31 Detection of avian lymphoid leucosis (avian lymphoid leukosis; Example 6, Run A): Negative
9CFR 113.31 Detection of avian lymphoid leucosis (avian lymphoid leukosis; Example 6, Run B): Negative
9CFR 113.28 Detection of mycoplasma (mycoplasma; Example 6, Run A): Negative
9CFR 113.28 Detection of mycoplasma (mycoplasma; Example 6, Run B): Negative
9CFR 113.27 Detection of extraneous viable bacteria and fungi in live vaccine ([1]; Example 6, Run A): Negative
9CFR 113.27 Detection of extraneous viable bacteria and fungi in live vaccine ([1]; Example 6, Run B): Negative
9CFR 113.55 Extraneous agents in master seed ([2]; Example 6, Run A): Negative
9CFR 113.55 Extraneous agents in master seed ([2]; Example 6, Run B): Negative
Chicken Infectious Anemia Virus by PCR ([3]; Example 6, Run A): Negative
Chicken Infectious Anemia Virus by PCR ([3]; Example 6, Run B): Negative
Reticuloendothelial Virus by PCR ([4]; Example 6, Run A): Negative
Reticuloendothelial Virus by PCR ([4]; Example 6, Run B): Negative

CCC(=O)O [Trt 4, propionic acid]
Growth on MEA plates (Day 14) (Scopulariopsis brumptii): +
Growth in TSB Flasks (Day 28) (Scopulariopsis brumptii): −
fungistatic / fungicidal assessment (Scopulariopsis brumptii): fungistatic

CCC(=O)[O-].[Na+] [Trt 10, sodium propionate]
Growth on MEA plates (Day 14) (Scopulariopsis brumptii): +
Growth in TSB Flasks (Day 28) (Scopulariopsis brumptii): +

O=C(O)CC(O)(CC(=O)O)C(=O)O [Trt 5, citric acid]
Growth on MEA plates (Day 14) (Scopulariopsis brumptii): −
Growth in TSB Flasks (Day 28) (Scopulariopsis brumptii): −

OO [Trt 3, hydrogen peroxide]
Growth on MEA plates (Day 14) (Scopulariopsis brumptii): −
Growth in TSB Flasks (Day 28) (Scopulariopsis brumptii): −

CCC(=O)[O-].[Na+] [sodium propionate]
fungistatic / fungicidal assessment (Scopulariopsis brumptii): did not inhibit fungal growth
